The target of one assay is JAK2 (Homo sapiens (Human), UniProt O60674). In words: JAK2 enzyme activity assay (Thermo Fisher SelectScreen, Z-lyte). It counts as biochemical. Particulars: read-out: JAK2 Inhibition IC50. Summed up:
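IC50 values derive from a 4-parameter logistic fit of emission ratio across an 11-point series ([…] to 0.34 nM, 2% DMSO vehicle). Reaction: 1 h, 0.12-0.5 ng JAK2, […] Tyr 06 in HEPES pH 7.5 buffer with MgCl2, EGTA, BRIJ-35, read by Z-lyte development.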

Another assay deals with Tyk-2 (Homo sapiens (Human), UniProt P29597). In words: Tyk-2 enzyme activity assay (Thermo Fisher SelectScreen, Z-lyte). It counts as biochemical. Particulars: read-out: Tyk-2 Inhibition IC50. Summed up: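 Z-lyte FRET assay: 3.75–15 ng TYK2 with […] Tyr 03 peptide in HEPES pH 7.0, MgCl2, EGTA, BRIJ-35; 1 h reaction, then development reagent. 11-point dose-response, 2% DMSO; IC50 via 4-parameter fit of emission ratio, background without enzyme.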

Another assay deals with JAK3 (a.a. 781-1124) (Homo sapiens (Human), UniProt P52333). In words: JAK3 enzyme activity assay (SRCtide phosphorylation, Caliper). Particulars: 1 uM ATP; read-out: JAK3 Inhibition IC50. The assay is classed as biochemical.
In assay [1] the test system is IL-2 stimulated STAT5 phosphorylation on Tyr694 (JAK1/3). In words: JAK1/3 cellular target modulation: IL-2 stimulated phospho-STAT5 in PBMC. The conditions noted are these: human PBMC, IL-2 25 ng/ml; read-out: IL2-STAT5 IC50. It counts as cell-based. Summed up:
(§1)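 Thawed human PBMC (200,000/well, RPMI/10% FBS) were preincubated with compound for 1 h at 37 °C, added from 10× stocks in 1% DMSO. Stimulation and read-out: IL-2 25 ng/ml, 5 min, pSTAT5 by MSD; IL-12 1.7 ng/ml, 25 min, pSTAT4 by MSD; IFNγ 10 ng/ml, 10 min, pSTAT1 by sandwich ELISA.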

For assay [2], the system named is IFNγ stimulated STAT1 phosphorylation on Tyr701 (JAK1/2). In words: JAK1/2 cellular target modulation: IFNγ stimulated phospho-STAT1 in PBMC. It counts as cell-based. Particulars: human PBMC, IFNγ 10 ng/ml; read-out: Infγ-STAT1 IC50. Summed up: as §1
The target of another assay is JAK1 (Homo sapiens (Human), UniProt P23458). In words: JAK1 enzyme activity assay (Thermo Fisher SelectScreen, Z-lyte). The assay is classed as biochemical. The conditions noted are these: read-out: JAK1 Inhibition IC50. Summed up:
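Z-lyte assay with 21.2-91.5 ng JAK and […] Tyr 06 in 50 mM HEPES pH 7.0, 10 mM MgCl2, 1 mM EGTA, 0.01% BRIJ-35; 1 h kinase reaction, then development reagent. 11-point dose-response from […] to 0.34 nM, 2% DMSO vehicle; IC50 from 4-parameter logistic fit of emission ratio.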

For assay [3], the system named is IL-12 stimulated STAT4 phosphorylation on Tyr693 (JAK2/TYK2). In words: JAK2/TYK2 cellular target modulation: IL-12 stimulated phospho-STAT4 in PBMC. The assay is classed as cell-based. The conditions noted are these: human PBMC, IL-12 1.7 ng/ml; read-out: IL12-STAT4 IC50. The text has this: JAK Cellular Target Modulation Assays
Target modulation was based upon the ability of a compound to inhibit JAK isoform specific phosphorylation of selected substrates. IL-2 stimulated STAT5 phosphorylation on Tyr694 was used to assess JAK1/3 compound selectivity. GM-CSF stimulated STAT5 phosphorylation on Tyr694 was used to assess JAK2 compound selectivity. IFNγ stimulated STAT1 phosphorylation on Tyr701 was used to assess JAK1/2 compound selectivity. IL-12 stimulated STAT4 phosphorylation on Tyr693 was used to assess JAK2/TYK2 compound selectivity. For all four assays, human PBMC from frozen stocks were thawed, pelleted, resuspended in complete media (90% RPMI, 10% heat inactivated FBS, 10 mM HEPES, 47 μM 2-ME, pen/strep) and placed in wells of a 96 well V-bottom plate at 200,000 per well in 120 μl complete media. Compounds were added as 15 μl per well of 10× working stock solutions in complete media with 1% DMSO (or medium with 1% DMSO for controls) and placed on a plate shaker in a 37° C. incubator with 5% CO2 for 1 hour with gentle shaking (setting of 3). Stimulation used the addition of soluble cytokines. For the JAK1/3 phospho-STAT5 assay, 15 μl of 10× working stock recombinant human IL-2 was added to a final concentration of 25 ng/ml. For the JAK2 phospho-STAT5 assay, 15 μl of 10× working stock recombinant human GM-CSF was added to a final concentration of 5 ng/ml. For the JAK1/2 phospho-STAT1 assay, 15 μl of 10× working stock of recombinant human IFNγ was added to a final concentration of 10 ng/ml. For the JAK2/TYK2 phospho-STAT4 assay, 15 μl of 10× working stock of recombinant human IL-12 was added to a final concentration of 1.7 ng/ml. Plates were then placed back on the plate shaker in the incubator for an additional 5, 5, 10, and 25 minutes respectively upon which the plates were removed from the incubator, sealed with a plate sealer and the cells pelleted at 400×g for 5 minutes. After pelleting, the media was removed by aspiration and the cells were lysed in assay specific cell lysis buffer. The levels of phospho-STATS were determined using a Phospho (Tyr694) STAT5a,b Whole Cell Lysate kit from Meso Scale Discovery. Levels of phospho-STAT1 were determined using a CST-PathScan Phospho-STAT1 (Tyr701) Sandwich ELISA kit. Levels of phospho-STAT4 were determined using a Phospho-STAT4 (Tyr693) Whole Cell Lysate kit from Meso Scale Discovery.

SMILES strings stand for the structures. Where only a bound is given, the exact number is not on record here.

JAK2, sequence (O60674 whole entry): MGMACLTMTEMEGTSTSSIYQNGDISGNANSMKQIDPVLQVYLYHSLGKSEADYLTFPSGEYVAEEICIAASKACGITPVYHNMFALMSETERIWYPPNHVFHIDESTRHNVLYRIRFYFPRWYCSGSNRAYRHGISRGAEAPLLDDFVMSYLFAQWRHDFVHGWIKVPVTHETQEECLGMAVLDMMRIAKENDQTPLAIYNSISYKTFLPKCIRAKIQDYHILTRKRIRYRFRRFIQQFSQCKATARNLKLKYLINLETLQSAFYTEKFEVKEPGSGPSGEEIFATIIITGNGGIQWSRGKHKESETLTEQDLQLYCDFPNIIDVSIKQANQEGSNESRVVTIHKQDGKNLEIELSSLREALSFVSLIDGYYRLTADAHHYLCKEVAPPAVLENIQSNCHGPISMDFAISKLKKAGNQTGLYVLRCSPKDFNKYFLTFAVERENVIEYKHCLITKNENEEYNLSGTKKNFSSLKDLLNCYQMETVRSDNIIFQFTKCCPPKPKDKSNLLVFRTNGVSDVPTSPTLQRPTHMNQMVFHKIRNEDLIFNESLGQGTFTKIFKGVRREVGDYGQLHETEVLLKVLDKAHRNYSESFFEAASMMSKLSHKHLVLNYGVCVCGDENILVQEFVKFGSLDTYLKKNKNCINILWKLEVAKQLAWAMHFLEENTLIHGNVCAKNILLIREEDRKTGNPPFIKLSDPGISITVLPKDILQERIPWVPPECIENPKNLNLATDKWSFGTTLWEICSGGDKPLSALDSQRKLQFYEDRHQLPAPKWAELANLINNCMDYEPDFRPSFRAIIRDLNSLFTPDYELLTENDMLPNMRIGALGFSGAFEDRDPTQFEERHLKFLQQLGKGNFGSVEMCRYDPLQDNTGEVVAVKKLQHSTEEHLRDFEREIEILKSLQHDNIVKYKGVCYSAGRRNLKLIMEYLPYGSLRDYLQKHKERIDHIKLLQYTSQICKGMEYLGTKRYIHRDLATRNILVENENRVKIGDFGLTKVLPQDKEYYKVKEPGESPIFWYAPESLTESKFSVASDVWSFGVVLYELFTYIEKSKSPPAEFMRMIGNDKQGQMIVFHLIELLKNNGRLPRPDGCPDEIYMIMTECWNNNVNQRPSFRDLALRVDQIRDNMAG
JAK3 (a.a. 781-1124), sequence (P52333 781-1124): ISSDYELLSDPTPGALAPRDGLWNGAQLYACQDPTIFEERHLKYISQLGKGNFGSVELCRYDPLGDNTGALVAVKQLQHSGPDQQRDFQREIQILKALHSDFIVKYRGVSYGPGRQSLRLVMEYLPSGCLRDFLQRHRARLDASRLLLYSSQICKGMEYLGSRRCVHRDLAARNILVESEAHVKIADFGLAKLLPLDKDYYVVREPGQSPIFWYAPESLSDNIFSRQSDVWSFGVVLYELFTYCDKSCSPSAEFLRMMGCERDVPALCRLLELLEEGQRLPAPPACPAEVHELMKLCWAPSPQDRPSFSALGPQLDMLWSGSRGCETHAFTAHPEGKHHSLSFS
Tyk-2, sequence (P29597 whole entry): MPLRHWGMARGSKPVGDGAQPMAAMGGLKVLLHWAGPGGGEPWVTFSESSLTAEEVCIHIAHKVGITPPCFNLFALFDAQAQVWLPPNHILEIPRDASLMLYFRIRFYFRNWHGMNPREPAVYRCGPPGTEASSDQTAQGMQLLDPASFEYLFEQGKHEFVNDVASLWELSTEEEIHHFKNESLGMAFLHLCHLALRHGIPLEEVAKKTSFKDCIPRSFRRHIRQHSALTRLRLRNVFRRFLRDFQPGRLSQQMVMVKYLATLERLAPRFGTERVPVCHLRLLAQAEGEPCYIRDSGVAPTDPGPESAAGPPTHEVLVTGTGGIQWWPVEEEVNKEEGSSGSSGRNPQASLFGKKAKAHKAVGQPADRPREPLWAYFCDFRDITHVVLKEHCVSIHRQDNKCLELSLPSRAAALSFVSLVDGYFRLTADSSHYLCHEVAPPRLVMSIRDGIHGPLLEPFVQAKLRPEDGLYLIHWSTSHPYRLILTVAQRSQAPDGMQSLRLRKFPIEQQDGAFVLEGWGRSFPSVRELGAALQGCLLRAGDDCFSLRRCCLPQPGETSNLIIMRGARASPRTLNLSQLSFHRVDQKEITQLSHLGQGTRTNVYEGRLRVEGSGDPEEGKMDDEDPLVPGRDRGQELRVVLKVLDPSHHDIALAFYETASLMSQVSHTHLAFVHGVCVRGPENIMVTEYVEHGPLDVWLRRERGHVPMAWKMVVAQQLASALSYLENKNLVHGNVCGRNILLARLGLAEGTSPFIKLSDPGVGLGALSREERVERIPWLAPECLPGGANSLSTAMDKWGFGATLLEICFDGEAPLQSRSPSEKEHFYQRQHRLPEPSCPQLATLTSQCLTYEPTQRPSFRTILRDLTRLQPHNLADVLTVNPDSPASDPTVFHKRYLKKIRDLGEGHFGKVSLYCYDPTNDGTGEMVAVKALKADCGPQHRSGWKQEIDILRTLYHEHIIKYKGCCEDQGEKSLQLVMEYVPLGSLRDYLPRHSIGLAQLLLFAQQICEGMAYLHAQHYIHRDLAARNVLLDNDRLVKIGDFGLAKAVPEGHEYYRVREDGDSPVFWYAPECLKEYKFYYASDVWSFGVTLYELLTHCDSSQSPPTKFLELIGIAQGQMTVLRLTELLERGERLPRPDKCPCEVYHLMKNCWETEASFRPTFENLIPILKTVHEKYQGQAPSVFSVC
JAK1, sequence (P23458 whole entry): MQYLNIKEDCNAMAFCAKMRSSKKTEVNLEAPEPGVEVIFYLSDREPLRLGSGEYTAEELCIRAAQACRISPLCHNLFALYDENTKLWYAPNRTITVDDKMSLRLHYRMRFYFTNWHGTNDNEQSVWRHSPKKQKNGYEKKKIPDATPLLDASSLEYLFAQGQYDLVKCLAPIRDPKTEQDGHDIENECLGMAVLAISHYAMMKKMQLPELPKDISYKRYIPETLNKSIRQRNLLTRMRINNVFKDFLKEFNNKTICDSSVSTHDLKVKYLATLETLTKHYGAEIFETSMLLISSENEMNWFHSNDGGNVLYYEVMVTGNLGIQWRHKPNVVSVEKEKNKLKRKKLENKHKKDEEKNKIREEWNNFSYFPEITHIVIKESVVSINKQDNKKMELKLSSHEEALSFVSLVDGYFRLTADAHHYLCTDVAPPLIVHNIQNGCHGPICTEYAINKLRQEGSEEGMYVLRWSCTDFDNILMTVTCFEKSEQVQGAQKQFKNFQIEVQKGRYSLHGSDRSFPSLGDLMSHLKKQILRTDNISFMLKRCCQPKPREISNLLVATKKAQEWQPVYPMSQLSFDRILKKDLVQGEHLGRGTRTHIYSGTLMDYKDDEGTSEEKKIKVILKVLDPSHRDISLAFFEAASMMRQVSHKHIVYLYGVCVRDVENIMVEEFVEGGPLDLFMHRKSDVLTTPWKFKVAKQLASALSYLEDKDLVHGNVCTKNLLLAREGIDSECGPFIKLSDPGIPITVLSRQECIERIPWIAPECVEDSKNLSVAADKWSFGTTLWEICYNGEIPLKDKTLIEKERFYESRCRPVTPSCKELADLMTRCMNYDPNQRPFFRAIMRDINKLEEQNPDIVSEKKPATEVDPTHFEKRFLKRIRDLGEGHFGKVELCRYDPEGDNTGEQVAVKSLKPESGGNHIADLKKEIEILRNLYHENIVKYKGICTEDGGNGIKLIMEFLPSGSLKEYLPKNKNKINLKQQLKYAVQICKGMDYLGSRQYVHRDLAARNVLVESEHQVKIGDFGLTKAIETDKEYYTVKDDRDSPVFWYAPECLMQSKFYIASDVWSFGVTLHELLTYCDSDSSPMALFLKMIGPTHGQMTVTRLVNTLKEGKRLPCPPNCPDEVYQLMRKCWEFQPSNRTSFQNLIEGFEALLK

For `Cc1noc(-c2cnc3[nH]ccc3c2N[C@@H]2CCCN(C(=O)CC#N)C2)n1` [Example 6, (R)-3-(3-((5-(3-methyl-1,2,4-oxadiazol-5-yl)-1H-pyrrolo[2,3-b]pyridin-4-yl)amino)piperidin-1-yl)-3-oxopropanenitrile], the IC50 (commonly the concentration that gives 50% inhibition) on JAK2 is 10 to 100 nM; on Tyk-2, 10 to 100 nM; at JAK3 (a.a. 781-1124), at most 10 nM; in assay [1], at most 100 nM; in assay [2] it was 100 to 1000 nM; on JAK1, at most 10 nM. Besides, the IC50 in assay [3] is above 1000 nM.

For the molecule `NC(=O)c1coc(-c2cnc3[nH]ccc3c2N[C@H]2CC[C@@H](O)C2)n1` [Example 29, 2-(4-(((1S,3R)-3-hydroxycyclopentyl)amino)-1H-pyrrolo[2,3-b]pyridin-5-yl)oxazole-4-carboxamide], the concentration for half-maximal inhibition (IC50) is 10 to 100 nM on JAK2; 100 to 1000 nM at Tyk-2; at most 10 nM at JAK3 (a.a. 781-1124); at most 100 nM in assay [1]; 100 to 1000 nM in assay [2]; 10 to 100 nM on JAK1. For the same molecule, the IC50 in assay [3] is above 1000 nM.

On to `N#CCC(=O)N1CCC[C@@H](Nc2c(-c3ccn[nH]3)cnc3[nH]ccc23)C1` [Example 18, (R)-3-(3-((5-(1H-pyrazol-5-yl)-1H-pyrrolo[2,3-b]pyridin-4-yl)amino)piperidin-1-yl)-3-oxopropanenitrile], for which the half-maximal inhibitory concentration (IC50) at JAK2 is 10 to 100 nM; on Tyk-2, 10 to 100 nM; on JAK3 (a.a. 781-1124), at most 10 nM; in assay [1], at most 100 nM; in assay [2], 100 to 1000 nM; on JAK1, at most 10 nM. In assay [3], the concentration for half-maximal inhibition (IC50) is above 1000 nM.

For `C[C@H]1C[C@@H](Nc2c(-c3cccc(CO)n3)cnc3[nH]ccc23)CN(C(=O)CC#N)C1` [Example 64, 3-((3R,5S)-3-((5-(6-(hydroxymethyl)pyridin-2-yl)-1H-pyrrolo[2,3-b]pyridin-4-yl)amino)-5-methylpiperidin-1-yl)-3-oxopropanenitrile], the IC50 at JAK2 is at most 10 nM; at Tyk-2, at most 10 nM; at JAK3 (a.a. 781-1124) it was at most 10 nM; in assay [1], at most 100 nM; in assay [2], at most 100 nM; on JAK1, at most 10 nM. Besides, the IC50 in assay [3] is above 1000 nM.

With `N#CCC(=O)N1CCC[C@@H](Nc2c(-c3ncccn3)cnc3[nH]ccc23)C1` [Example 23, (R)-3-oxo-3-(3-((5-(pyrimidin-2-yl)-1H-pyrrolo[2,3-b]pyridin-4-yl)amino)piperidin-1-yl)propanenitrile], the half-inhibitory concentration (IC50) on JAK2 is 100 to 1000 nM; on Tyk-2, 100 to 1000 nM; on JAK3 (a.a. 781-1124), 10 to 100 nM; in assay [1] it was 100 to 1000 nM; in assay [2], above 1000 nM; on JAK1, 10 to 100 nM. In addition, the IC50 in assay [3] was above 1000 nM.

For the molecule `N#CCC(=O)N1CCC[C@@H](Nc2c(-c3ccn(C(F)F)n3)cnc3[nH]ccc23)C1` [Example 2, (R)-3-(3-((5-(1-(difluoromethyl)-1H-pyrazol-3-yl)-1H-pyrrolo[2,3-b]pyridin-4-yl)amino)piperidin-1-yl)-3-oxopropanenitrile], the IC50 is 10 to 100 nM at JAK2; 10 to 100 nM at Tyk-2; at most 10 nM at JAK3 (a.a. 781-1124); at most 100 nM in assay [1]; 100 to 1000 nM in assay [2]; at most 10 nM on JAK1. For the same molecule, the IC50 in assay [3] is 100 to 1000 nM.

For the molecule `Cc1cc(-c2cnc3[nH]ccc3c2N[C@@H]2CCCN(C(=O)CC#N)C2)[nH]n1` [Example 26, (R)-3-(3-((5-(3-methyl-1H-pyrazol-5-yl)-1H-pyrrolo[2,3-b]pyridin-4-yl)amino)piperidin-1-yl)-3-oxopropanenitrile], the half-maximal inhibitory concentration (IC50) on JAK2 was 10 to 100 nM; on Tyk-2, 10 to 100 nM; at JAK3 (a.a. 781-1124), 10 to 100 nM; in assay [1], at most 100 nM; in assay [2], 100 to 1000 nM; at JAK1, at most 10 nM. The IC50 in assay [3] was above 1000 nM.

Regarding `C[C@H]1C[C@@H](Nc2c(-c3ncco3)cnc3[nH]ccc23)CN(C(=O)CC#N)C1` (single isomer, unassigned) [Example 10], the IC50 at JAK2 was at most 10 nM; at Tyk-2 it was at most 10 nM; on JAK3 (a.a. 781-1124), at most 10 nM; in assay [1], at most 100 nM; in assay [2] it was at most 100 nM; on JAK1, at most 10 nM. The IC50 in assay [3] is at most 100 nM.

For the molecule `C[C@H]1C[C@@H](Nc2c(-c3ccn(C(F)F)n3)cnc3[nH]ccc23)CN(C(=O)CC#N)C1` [Example 40, 3-((3R,5S)-3-((5-(1-(difluoromethyl)-1H-pyrazol-3-yl)-1H-pyrrolo[2,3-b]pyridin-4-yl)amino)-5-methylpiperidin-1-yl)-3-oxopropanenitrile], the concentration for half-maximal inhibition (IC50) was at most 10 nM on JAK2; at most 10 nM on Tyk-2; at most 10 nM at JAK3 (a.a. 781-1124); at most 100 nM in assay [1]; at most 100 nM in assay [2]; at most 10 nM on JAK1. Besides, the IC50 in assay [3] is at most 100 nM.

With `Cc1ccnc(-c2cnc3[nH]ccc3c2N[C@@H]2CCCN(C(=O)CC#N)C2)c1` [Example 15, (R)-3-(3-((5-(4-methylpyridin-2-yl)-1H-pyrrolo[2,3-b]pyridin-4-yl)amino)piperidin-1-yl)-3-oxopropanenitrile], the IC50 on JAK2 was 10 to 100 nM; on Tyk-2 it was 10 to 100 nM; on JAK3 (a.a. 781-1124), at most 10 nM; in assay [1], at most 100 nM; in assay [2] it was 100 to 1000 nM; at JAK1, at most 10 nM. For the same molecule, the IC50 in assay [3] was above 1000 nM.

For `Cc1nccc(-c2cnc3[nH]ccc3c2N[C@@H]2C[C@H](C)CN(C(=O)CC#N)C2)n1` [Example 52, 3-((3S,5R)-3-methyl-5-((5-(2-methylpyrimidin-4-yl)-1H-pyrrolo[2,3-b]pyridin-4-yl)amino)piperidin-1-yl)-3-oxopropanenitrile], the IC50 on JAK2 is at most 10 nM; on Tyk-2, at most 10 nM; at JAK3 (a.a. 781-1124), at most 10 nM; in assay [1] it was at most 100 nM; in assay [2] it was at most 100 nM; at JAK1, at most 10 nM. Also, the concentration for half-maximal inhibition (IC50) in assay [3] lay in the range of 100 to 1000 nM.

On to `N#CCC(=O)N1CCC[C@@H](Nc2c(-c3ccn(CCO)n3)cnc3[nH]ccc23)C1` [Example 62, (R)-3-(3-((5-(1-(2-hydroxyethyl)-1H-pyrazol-3-yl)-1H-pyrrolo[2,3-b]pyridin-4-yl)amino)piperidin-1-yl)-3-oxopropanenitrile], for which the half-maximal inhibitory concentration (IC50) on JAK2 was at most 10 nM; at Tyk-2, 10 to 100 nM; at JAK3 (a.a. 781-1124) it was at most 10 nM; in assay [1], at most 100 nM; in assay [2], 100 to 1000 nM; at JAK1, at most 10 nM. For the same molecule, the IC50 in assay [3] was above 1000 nM.

The values are drawn from patent publication US11420966B2 (ACLARIS THERAPEUTICS, INC., priority 2019, dated 2022).
